These are literature values, as cited in patent publication US20050163842A1, “Rosiglitazone and metformin formulations” (priority 2003, published 2005).

Data set [1] concerns mouse models of diabetes.
Data set [2] concerns animal models of type 2 diabetes.

Consider `CN(CCOc1ccc(CC2SC(=O)NC2=O)cc1)c1ccccn1` (stereo not drawn) [Rosiglitazone, 5-[4-[2-(N-methyl-N-(2-pyridyl)amino)ethoxy]benzyl]thiazolidine-2,4-dione], for which the “development of overt diabetes” value in data set [1] (mouse models) is “prevent the development of overt diabetes”. In data set [1] (several mouse models of diabetes), the “blood glucose levels and hyperinsulinemia” value was “reduce blood glucose levels and hyperinsulinemia”. The “hypoglycemia or impaired glucose tolerance” value in data set [2] was “did not induce hypoglycemia or impaired glucose tolerance”.
